Laboratory results reported in patent publication US20220030850A1, “CRYOPRESERVATIVE COMPOSITIONS AND METHODS” (REGENTS OF THE UNIVERSITY OF MINNESOTA, priority 2015, published 2022).

How the values were obtained:
Jurkat cells [1] = assay: Raman microscopy cell penetration study of cryoprotectants; assay type: cell-based; conditions: for Penetration: Raman microscopy, at room temperature and at freezing temperatures; for location of cryoprotectant in Raman contrast image: Jurkat cells frozen in either glycerol or trehalose, FIG. 12
Experimental: Raman microscopy data provides an indication of the location of action of each cryopreservative. The images in FIG. 12 show Jurkat cells frozen in either glycerol (penetrating) or trehalose (non-penetrating).
These experiments were performed for most of the components described in the sections above both at room temperature and at freezing temperatures to assess whether penetration was temperature dependent.
Confocal Raman Microspectroscopy (CRM) measurements are conducted using Witec Confocal Raman Microscope System Alpha 300R (WITec, Wissenschaftliche Instrumente und Technologie GmbH, Ulm, Germany) with UHTS300 spectrometer and DV401 CCD detector. A wavelength of 532 nm Nd:YAG laser and 10 mW of power is used as excitation source. The laser is transferred to the microscopy in a singer fiber. A 100× air objective (NA 0.90; Nikon Instruments, Melville, N.Y.) is used for focusing the 532 nm excitation laser to the sample. Data collection and analysis are performed by Windows-based WitecControl_1.38 software.

lysozyme = lysozyme (Gallus gallus, UniProt P00698); assay: Differential scanning calorimetry, denaturation temperature of lysozyme in osmolyte solution; assay type: physicochemical; conditions: 1 mg/ml lysozyme in 20 mM HEPES buffer; single osmolytes 600 mM; heated at 1° C./min; pH 7.3
Sequence of lysozyme (P00698 19-147): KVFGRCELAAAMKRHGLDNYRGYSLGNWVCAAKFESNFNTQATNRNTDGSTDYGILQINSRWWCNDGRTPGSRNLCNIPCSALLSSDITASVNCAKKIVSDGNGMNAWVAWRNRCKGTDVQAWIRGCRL
Experimental: Lysozyme powder was dissolved into each solution reaching final concentration of 100 mg/ml and then refrigerated. Lysozyme in DPBS solution was used as control. For DSC measurements, experiment solution was made by dissolving osmolyte into 20 mM HEPES buffer and the concentration of osmolyte in each solution remained same as in DPBS solution. Lysozyme powder was dissolved into each solution reaching final concentration of 1 mg/ml and kept refrigerated. Lysozyme in HEPES buffer was used as control. The pH of solutions was 7.3 measured by Beckman 350 meter. Differential scanning calorimetry was performed on a differential scanning calorimeter (Q1000, TA Instruments, New Castle, Del.). Osmolyte solutions containing lysozyme were heated in order to determine the denaturation temperature of lysozyme. Experimental solutions were heated from room temperature to 90° C. at 1° C./min. Specific heat, Cp, was calculated from the heat flow data assuming Cp as a function of temperature were analyzed using OriginPro software (OriginLab Corp., Northampton, Mass.) to subtract curve baseline. The midpoint temperature, Tm, was obtained as the temperature corresponding to the maximum specific heat value from the baseline and the denaturation temperature was assumed to be Tm^32.

MSCs = assay: High throughput factorial screening with Linear Mixed Effects statistical analysis of recovery; assay type: cell-based, human; conditions: for correlation with recovery: statistical analysis
Experimental: (§1) In another evaluation, cells were combined with factorial combinations of the components listed in Table 5, using one component from each category. Plates including cells and solutions were frozen at cooling rates of 1′C/min, 3′C/min, 5′C/min, or 10′C/min.
(§2) Recovery was calculated by dividing the number of live cells post thaw—calculated using a control curve correlating calcein-acetoxymethyl (AM) fluorescence to cell count—by the number of live cells seeded pre-freeze (AO/PI counts taken prior to freezing). Recovery was normalized by dividing by the DMSO recovery on each plate, then multiplying by a standard DMSO recovery for each cooling rate. This normalized recovery was used to compare samples between different plates and different cooling rates.
(§3) Statistical analysis of the data was performed using a Linear Effects Model. The model associated with best fit was determined using Bayesian Information Criteria. […] The ten best combinations for Jurkats are summarized in Table 6 below, while the eight best combinations for MSCs are summarized in Table 7.
To assess the importance of the four explanatory variables of interest (Sugar, Rate, Additive and Alcohol), without neglecting the variation between each batch and between each plate within the batches, we sought to find the best Linear Mixed Effects (LME) model. With yi the i'th outcome of the response, Xi the corresponding values of the covariates, the LME model is defined as
To select the most fitting model, we performed backward elimination based on the Bayesian Information Criterion (BIC) starting with a model that includes all variables and second order interactions. Furthermore, we included two random variables, one to catch the effect of the batch, and one to catch the effect of each plate within the batch—i.e., the full model is: […]

Jurkat cells [2] = assay: as above; assay type: cell-based; conditions: for correlation with recovery: statistical analysis, data not shown
Experimental: as §1, §2, §3
High throughput factorial screening experiments were performed on a Biomek Beckman FX 96 liquid handling robot. Briefly, 12.5 μl of an array of additives were transferred to nine 96-well plates containing 12.5 μl of different sugar alcohols. Cells (25 μl) diluted in either a sugar (in a solution of NORMOSOL-R; Hospira, Inc., Lake Forest, L) or a NORMOSOL-R blank solution were transferred to these nine plates to give a final volume of 50 μl in each well. Cells suspended in […] in media were also included as a row of each plate to serve as normalization wells for plate-to-plate comparison.
When all plate volume transfers were complete, silicone plate covers were used to seal each plate, and plates were transferred to a controlled rate freezer (Kryo 10 Series III, Planer PLC, Middlesex, United Kingdom) and frozen at cooling rates ranging from 1° C./min to 10° C./min. The concentrations of components present in solution are listed in Table 11, and were selected based on values described in literature or solubility limits. Component concentrations were 0 if not listed in a solution.
Plate samples were also assessed for viability using fluorescence. Briefly, a solution of calcein-AM/propidium iodide was prepared and a volume of 50 μl was added to each sample well of experimental 96-well plates, producing a 1:1 dilution. Plates were protected from light and placed in an incubator for 30 minutes to allow for calcein-AM digestion. A fluorescent plate reader (Synergy HT, BioTek Instruments, Inc., Winooski, Vt.) was used to determine the fluorescence in each well, which was correlated to live and dead cell counts using a control curve.
Viability was calculated for all samples by dividing the number of live cells by the number of total cells. Recovery was calculated directly by dividing the number of live cells post thaw by the number of live cells pre-freeze. Recovery for 96-well plate samples was further normalized; each experimental sample recovery was divided by the DMSO recovery on the same plate, and then multiplied by the standard DMSO recovery for the cooling rate of each experiment.
To assess the importance of the four explanatory variables of interest (Sugar, Rate, Additive and Alcohol), without neglecting the variation between each batch and between each plate within the batches, we sought to find the best Linear Mixed Effects (LME) model. […]

Jurkat cells [3] = assay: 96-well plate freezing, post-thaw scaled raw recovery (calcein-AM/PI); assay type: cell-based; conditions: 150, 300, 600 mM total sugar; FIG. 8
Experimental: The first phase of this study involved using the DE algorithm to develop a three-component cryopreservation solution used at a single cooling rate (1° C./min). Three components (trehalose, glycerol, and ectoine (TGE)) were selected as components of the exemplary freezing medium used for preservation of Jurkat cells, a hematopoietic model cell type, based on pre-screening of multiple non-DMSO components. For this single cooling rate study, the DE algorithm was programmed to output 18 vector solutions per generation with a weight=0.85 and a crossover=1. Jurkat cells cryopreserved in 10% DMSO at a cooling rate of 1° C./min were used as a control.
Cooling rate influences cell survival, and the preferred cooling rate for a given application can depend, at least in part, on the composition of the freezing medium and the cell type being frozen. […] To assess both cooling rate and the composition of the solution, the DE algorithm was programmed to output 27 vector solutions per generation with weight=0.85 and a crossover=1. Solutions were separated into categories based on their DE algorithm defined cooling rate, and were frozen in batches at a cooling rate of […], 0.5° C./min, 1° C./min, 3° C./min, 5° C./min, or 10° C./min. Results were normalized and scaled raw recovery is reported, allowing results from all cooling rates and all generations to be compared directly. […]
After 96 well plates were thawed, calcein-acetoxymethyl (AM)/propidium iodide was added to each well and the wells were covered from light and placed in a 37° C. incubator for 30 minutes to allow the live cells to cleave calcein-AM. The plates were then analyzed for fluorescence on a plate reader. Raw fluorescence values were used to calculate the number of live and dead cells present in each well by correlating to a control curve of unfrozen cells. The live cell recovery was calculated by dividing the number of live cells present in thawed samples (calcein-AM plate reader fluorescence) by the number of live cells seeded pre-freeze (AO/PI counts). […]

[4] = statistical analysis of sugar and cooling rate

## C[C@H](N)C(=O)O [Alanine]
Jurkat cells [1]
  Penetration: Yes

## CC1=NCC[C@@H](C(=O)O)N1 [Ectoine]
lysozyme
  Denaturation temperature Tm of lysozyme: 79.6 °C
Jurkat cells [1]
  Penetration: Yes

## OCCO [Ethylene glycol]
Jurkat cells [1]
  Penetration: Yes

## O=C(CO)[C@@H](O)[C@H](O)[C@H](O)CO [Fructose]
Jurkat cells [1]
  Penetration: Yes

## OCC(O)CO [Glycerol]
MSCs
  correlation with recovery: positively correlated
Jurkat cells [1]
  location of cryoprotectant in Raman contrast image: present both inside the cell and in the super cooled liquid surrounding the cell
  Penetration: Yes

## O[C@H]1[C@H](O)[C@@H](O)[C@H](O)[C@@H](O)[C@H]1O [Inositol]
Jurkat cells [1]
  Penetration: Yes

## OC[C@@H](O)[C@@H](O)[C@H](O)[C@H](O)CO [Mannitol]
Jurkat cells [1]
  Penetration: Yes

## O=C(O)[C@@H]1CCCN1 [Proline]
Jurkat cells [2]
  correlation with recovery: negatively correlated
MSCs
  correlation with recovery: negatively correlated
Jurkat cells [1]
  Penetration: Yes

## OC[C@@H](O)[C@@H](O)[C@H](O)[C@@H](O)CO [Sorbitol]
MSCs
  correlation with recovery: positively correlated
lysozyme
  Denaturation temperature Tm of lysozyme: 83.1 °C
Jurkat cells [1]
  Penetration: Yes

## NCCS(=O)(=O)O [Taurine]
Jurkat cells [1]
  Penetration: Yes

## OC[C@H]1O[C@H](O[C@H]2O[C@H](CO)[C@@H](O)[C@H](O)[C@H]2O)[C@H](O)[C@@H](O)[C@@H]1O [Trehalose]
Jurkat cells [2]; [4]
  cooling rate at which cells performed better with the sugar: 5° C./min
MSCs; [4]
  cooling rate at which cells performed better with the sugar: 10° C./min
Jurkat cells [1]
  location of cryoprotectant in Raman contrast image: excluded from the cell
  Penetration: Semi*
Jurkat cells [3]
  recovery of Jurkat cells, sugar synergy study: outperformed monosaccharides

## CC(C)[C@H](N)C(=O)O [Valine]
MSCs
  correlation with recovery: negatively correlated
Jurkat cells [1]
  Penetration: Yes

## OC[C@@H](O)[C@H](O)[C@@H](O)CO [Xylitol]
Jurkat cells [1]
  Penetration: Yes

## OC[C@@H](O)[C@@H](O)CO [erythritol]
Jurkat cells [2]
  correlation with recovery: negatively correlated
MSCs
  correlation with recovery: negatively correlated

## OC[C@@H](O)[C@@H](O)[C@@H](O)CO [ribitol]
Jurkat cells [2]
  correlation with recovery: negatively correlated
MSCs
  correlation with recovery: negatively correlated
